Reference: PubChem BioAssay (NCI)
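Test compounds were applied to cells in 96-well plates for 48 hours at 5 doses. TGI: concentration producing complete growth inhibition.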

Columns and labels:
Experiment in all cases: NCI anticancer screen, dose series, 48 h
KM12 colon = tested on: KM12 colon
HCT-116 colon = tested on: HCT-116 colon
U251 CNS = tested on: U251 CNS
LOX IMVI melanoma = tested on: LOX IMVI melanoma
HL-60(TB) leukemia = tested on: HL-60(TB) leukemia
SK-OV-3 ovarian = tested on: SK-OV-3 ovarian
SNB-78 CNS = tested on: SNB-78 CNS
ACHN renal = tested on: ACHN renal
TK-10 renal = tested on: TK-10 renal
OVCAR-3 ovarian = tested on: OVCAR-3 ovarian
XF 498 CNS = tested on: XF 498 CNS
NCI-H23 lung = tested on: NCI-H23 lung
DMS 114 small cell lung = tested on: DMS 114 small cell lung
UO-31 renal = tested on: UO-31 renal
786-0 renal = tested on: 786-0 renal
CCRF-CEM leukemia = tested on: CCRF-CEM leukemia
DLD-1 colon = tested on: DLD-1 colon
MALME-3M melanoma = tested on: MALME-3M melanoma
A498 renal = tested on: A498 renal
SW-620 colon = tested on: SW-620 colon
MOLT-4 leukemia = tested on: MOLT-4 leukemia
M19-MEL melanoma = tested on: M19-MEL melanoma
A549 NSCLC = tested on: A549 NSCLC
UACC-257 melanoma = tested on: UACC-257 melanoma
SF-539 CNS = tested on: SF-539 CNS
KM20L2 colon = tested on: KM20L2 colon
SK-MEL-28 melanoma = tested on: SK-MEL-28 melanoma
RXF-631 renal = tested on: RXF-631 renal
OVCAR-8 ovarian = tested on: OVCAR-8 ovarian
COLO 205 colon = tested on: COLO 205 colon
SK-MEL-2 melanoma = tested on: SK-MEL-2 melanoma
HOP-18 NSCLC = tested on: HOP-18 NSCLC
SNB-75 CNS = tested on: SNB-75 CNS
OVCAR-5 ovarian = tested on: OVCAR-5 ovarian
HOP-92 NSCLC = tested on: HOP-92 NSCLC
RPMI-8226 leukemia = tested on: RPMI-8226 leukemia
SF-295 CNS = tested on: SF-295 CNS
NCI-H522 lung = tested on: NCI-H522 lung
EKVX NSCLC = tested on: EKVX NSCLC
LXFL 529 NSCLC = tested on: LXFL 529 NSCLC
K-562 leukemia = tested on: K-562 leukemia
NCI-H460 lung = tested on: NCI-H460 lung
HOP-62 NSCLC = tested on: HOP-62 NSCLC
HCC-2998 colon = tested on: HCC-2998 colon
DMS 273 small cell lung = tested on: DMS 273 small cell lung
SF-268 CNS = tested on: SF-268 CNS
HT29 colon = tested on: HT29 colon
IGROV1 ovarian = tested on: IGROV1 ovarian
RXF 393 renal = tested on: RXF 393 renal
OVCAR-4 ovarian = tested on: OVCAR-4 ovarian
UACC-62 melanoma = tested on: UACC-62 melanoma
SN12C renal = tested on: SN12C renal
CAKI-1 renal = tested on: CAKI-1 renal
SK-MEL-5 melanoma = tested on: SK-MEL-5 melanoma
M14 melanoma = tested on: M14 melanoma
HCT-15 colon = tested on: HCT-15 colon
NCI-H226 lung = tested on: NCI-H226 lung
SR leukemia = tested on: SR leukemia
SNB-19 CNS = tested on: SNB-19 CNS

Molecule `COc1cccc2c1OC1Sc3ccccc3-c3nn(-c4ccccc4)c-2c31` (stereo not drawn) has a TGI (KM12 colon) of over 100 µM, a TGI (HCT-116 colon) of over 100 µM and a TGI (U251 CNS) of over 100 µM. For the same molecule, the TGI (LOX IMVI melanoma) was over 100 µM, the TGI (HL-60(TB) leukemia) was over 100 µM and the TGI (SK-OV-3 ovarian) was over 100 µM. For the same molecule, the TGI (SNB-78 CNS) was over 100 µM, the TGI (ACHN renal) was over 100 µM and the TGI (TK-10 renal) was over 100 µM. The TGI (OVCAR-3 ovarian) was over 100 µM, the TGI (XF 498 CNS) was over 100 µM and the TGI (NCI-H23 lung) was over 100 µM. For the same molecule, the TGI (DMS 114 small cell lung) was over 100 µM, the TGI (UO-31 renal) was over 100 µM and the TGI (786-0 renal) was over 100 µM. It also gave a TGI (CCRF-CEM leukemia) of over 100 µM, a TGI (DLD-1 colon) of over 100 µM and a TGI (MALME-3M melanoma) of over 100 µM. It also gave a TGI (A498 renal) of over 100 µM, a TGI (SW-620 colon) of over 100 µM and a TGI (MOLT-4 leukemia) of over 100 µM. The TGI (M19-MEL melanoma) was over 100 µM, the TGI (A549 NSCLC) was over 100 µM and the TGI (UACC-257 melanoma) was over 100 µM. It also gave a TGI (SF-539 CNS) of over 100 µM, a TGI (KM20L2 colon) of over 100 µM and a TGI (SK-MEL-28 melanoma) of over 100 µM. The TGI (RXF-631 renal) was over 100 µM, the TGI (OVCAR-8 ovarian) was over 100 µM and the TGI (COLO 205 colon) was over 100 µM. For the same molecule, the TGI (SK-MEL-2 melanoma) was over 100 µM, the TGI (HOP-18 NSCLC) was over 100 µM and the TGI (SNB-75 CNS) was over 100 µM. For the same molecule, the TGI (OVCAR-5 ovarian) was over 100 µM, the TGI (HOP-92 NSCLC) was over 100 µM and the TGI (RPMI-8226 leukemia) was over 100 µM. The TGI (SF-295 CNS) was over 100 µM, the TGI (NCI-H522 lung) was over 100 µM and the TGI (EKVX NSCLC) was over 100 µM. For the same molecule, the TGI (LXFL 529 NSCLC) was over 100 µM, the TGI (K-562 leukemia) was over 100 µM and the TGI (NCI-H460 lung) was over 100 µM. The TGI (HOP-62 NSCLC) was over 100 µM, the TGI (HCC-2998 colon) was over 100 µM and the TGI (DMS 273 small cell lung) was over 100 µM. For the same molecule, the TGI (SF-268 CNS) was over 100 µM, the TGI (HT29 colon) was over 100 µM and the TGI (IGROV1 ovarian) was over 100 µM. The TGI (RXF 393 renal) was over 100 µM.

For `COc1cccc2c1C(=O)c1c(O)c3c(c(O)c1C2=O)C[C@@](O)(C(C)=O)CC3S(=O)(=O)O` (stereo partly drawn), the TGI (KM12 colon) was over 100 µM, the TGI (HCT-116 colon) was over 100 µM and the TGI (U251 CNS) was over 100 µM. It also gave a TGI (LOX IMVI melanoma) of over 100 µM, a TGI (HL-60(TB) leukemia) of over 100 µM and a TGI (SK-OV-3 ovarian) of over 100 µM. The TGI (SNB-78 CNS) was over 100 µM, the TGI (OVCAR-4 ovarian) was over 100 µM and the TGI (ACHN renal) was over 100 µM. The TGI (TK-10 renal) was over 100 µM, the TGI (UACC-62 melanoma) was over 100 µM and the TGI (OVCAR-3 ovarian) was over 100 µM. The TGI (SN12C renal) was over 100 µM, the TGI (XF 498 CNS) was over 100 µM and the TGI (NCI-H23 lung) was over 100 µM. The TGI (DMS 114 small cell lung) was over 100 µM, the TGI (CAKI-1 renal) was over 100 µM and the TGI (UO-31 renal) was over 100 µM. It also gave a TGI (786-0 renal) of over 100 µM, a TGI (CCRF-CEM leukemia) of over 100 µM and a TGI (SK-MEL-5 melanoma) of over 100 µM. It also gave a TGI (DLD-1 colon) of over 100 µM, a TGI (MALME-3M melanoma) of over 100 µM and a TGI (M14 melanoma) of over 100 µM. It also gave a TGI (A498 renal) of over 100 µM, a TGI (SW-620 colon) of over 100 µM and a TGI (MOLT-4 leukemia) of over 100 µM. For the same molecule, the TGI (M19-MEL melanoma) was over 100 µM, the TGI (A549 NSCLC) was over 100 µM and the TGI (UACC-257 melanoma) was over 100 µM. The TGI (SF-539 CNS) was over 100 µM, the TGI (KM20L2 colon) was over 100 µM and the TGI (SK-MEL-28 melanoma) was over 100 µM. It also gave a TGI (RXF-631 renal) of over 100 µM, a TGI (OVCAR-8 ovarian) of over 100 µM and a TGI (COLO 205 colon) of over 100 µM. The TGI (SK-MEL-2 melanoma) was over 100 µM, the TGI (HOP-18 NSCLC) was over 100 µM and the TGI (SNB-75 CNS) was over 93 µM. For the same molecule, the TGI (OVCAR-5 ovarian) was over 100 µM, the TGI (HOP-92 NSCLC) was over 100 µM and the TGI (RPMI-8226 leukemia) was over 100 µM. For the same molecule, the TGI (SF-295 CNS) was over 100 µM, the TGI (NCI-H522 lung) was over 100 µM and the TGI (EKVX NSCLC) was over 100 µM. The TGI (LXFL 529 NSCLC) was over 100 µM, the TGI (K-562 leukemia) was over 100 µM and the TGI (NCI-H460 lung) was over 100 µM. For the same molecule, the TGI (HOP-62 NSCLC) was over 100 µM, the TGI (HCC-2998 colon) was over 100 µM and the TGI (HCT-15 colon) was over 100 µM. The TGI (DMS 273 small cell lung) was over 100 µM, the TGI (SF-268 CNS) was over 100 µM and the TGI (NCI-H226 lung) was over 100 µM. For the same molecule, the TGI (HT29 colon) was over 100 µM, the TGI (IGROV1 ovarian) was over 100 µM and the TGI (RXF 393 renal) was over 100 µM. It also gave a TGI (SR leukemia) of over 100 µM and a TGI (SNB-19 CNS) of over 100 µM.
